Reference: patent publication US8445461B2, “Pharmaceutical composition for meniere's disease” (Setsuko Takeda, priority 2007, dated 2013)

Tests used:
[1] = test system: guinea pigs excreting normal feces; experiment: Antidiarrheal effect: observation of feces after oral administration of saccharides or sugar alcohols with or without polysaccharides (Example 1); format: in vivo
Description: The criteria for analyzing the conditions of feces (hardness, shape and spaces of feces in the intestine) are as shown in Table 2:
The hardness and microscopic findings of feces from the group administered with distilled water were assessed as “Normal” scoring 3, the feces having normal shape and the shape could rather easily change by pushing with fingers were assessed as “Slightly soft” scoring 2, those of which the shape had already changed or it could quite easily change by pushed with fingers were assessed as “Soft” scoring 1, and those of which the shape is muddy or watery or of no shape were assessed “Muddy” scoring 0. To be precese, there are no watery feces because of the nature of diets and thus the muddy feces correspond to watery and muddy feces in human.
Since the muddy feces comprise large content of water, they induce the high abdominal pressure and the flatulence and distension. […] In the case of gas generation, it appears that noxious symptom such as the flatulence and distension are synergistically deteriorated. Therefore, we assessed not only based on the hardness of feces, but also the size, smoothness of the surface and amount of feces.
In these experiments, I observed is the diarrhea caused by saccharides or sugar alcohols and antidiarrhreal effect of saccharides. Guinea pigs orally received saccharides or sugar alcohols, for example tetrose such as erythritol, pentose such as xylitol or xylose, hexose such as isosorbitol or the like in combination with or without polysaccharides for observation of the feces up to 6 hours after the administration.
Guinea pigs (body weight 280 to 320 g, normal feces) were divided into four groups: for Group 1-a, xylitol alone (Reference Example 1), or xylitol and xanthan gum or pectin; for Group 1-b, xylose alone (Reference Example 2), xylose and xanthan gum or pectin; for Group 1-c, erythritol alone (Reference Example 3), erythritol and pectin, erythritol and xanthan gum, or erythritol, pectin and natural aluminum silicate gel or calcium carbonate; and for Group 1-d, isosorbitol alone (Reference Example 4), or isosorbitol and xanthan gum or pectin were orally administered, respectively. The compounds are dissolved in distilled water and 8 ml/kg of said solution were administered as a single dose.
The feces were observed during 6 hours after the administration. When the animals fell into the most serious condition, the hardness and shape of the feces from said animals were assessed as the effect by saccharides or sugar alcohols in the animals.

[2] = test system: guinea pigs excreting normal feces; experiment: as above; format: in vivo; settings: maltitol 2.8 g/kg oral, alone or with additive; average of 4 animals; score 0 muddy to 4 hard
endolymphatic hydrops = settings: systemic administration; cited from earlier work
[3] = active agent 2.8 g/kg oral, alone or with additive of the label
[4] = maltitol 2.8 g/kg oral, alone or with additive of the label (Table 6)
[5] = maltitol 2.8 g/kg oral, alone or with additive, average of 4 animals, score 0 muddy to 4 hard

SMILES | Abdominal distension / gas by inspections and palpations [1, 3] | Time after administration when diarrhea / softening of feces started [1, 3] [h] | Time after administration when feces recovered to (almost) normal [1, 3] [h] | Hardness of feces: Hard (number of animals) [1, 4] | Hardness of feces: Muddy (number of animals) [1, 4] | Hardness of feces: Normal (number of animals) [1, 4] | Hardness of feces: Slightly soft (number of animals) [1, 4] | Hardness of feces: Soft (number of animals) [1, 4] | Hardness of feces (average score), 1 hr after the administration [1, 5] | Hardness of feces (average score), 2 hr after the administration [1, 5] | Hardness of feces (average score), 3 hr after the administration [1, 5] | Hardness of feces (average score), 4 hr after the administration [1, 5] | Hardness of feces (average score), 5 hr after the administration [1, 5] | Hardness of feces (average score), 6 hr after the administration [1, 5] | Hardness of feces (average score), 12 hr after the administration [2] | Hardness of feces (average score), 18 hr after the administration [2] | Hardness of feces (average score), 24 hr after the administration [2] | Decompression effect on endolymphatic hydrops (endolymphatic hydrops) | Effect in the normal ear (endolymphatic hydrops)
OC[C@@H](O)[C@@H](O[C@H]1O[C@H](CO)[C@@H](O)[C@H](O)[C@H]1O)[C@H](O)[C@@H](O)CO [Maltitol, maltitol] | abdominal distension was observed | 3 | ≥ 24 | 0 | 6 | 0 | 0 | 0 | 3 | 2.3 | 1.7 | 0.2 | 0 | 0 | 0 | 1.2 | 2.5 |  | 
Cc1ccccc1C(=O)Nc1ccc(C(=O)N2CCCC(N(C)C)c3ccccc32)cc1 (stereo not shown) [OPC 31260] |  |  |  |  |  |  |  |  |  |  |  |  |  |  |  |  |  | did not reveal the decompression effect | formation of endolymphatic hydrops in the normal ear
